Test results published in US6617136B2, “Biological sample processing methods and compositions that include surfactants” (3M Innovative Properties Company, priority 2001, dated 2003).

Legend:
[1] = molecular target: T1, AMPLITAQ DNA polymerase (Thermus aquaticus, UniProt P19821); assay: PCR amplification of PERV protease fragment in the presence of dye/surfactant mixture; type: biochemical; conditions: dye at 0.1 or 0.2 mg/mL, agarose gel
T1 construct: purchased Applied Biosystems, Foster City, Calif
Protocol: Typically, a fresh stock solution of 5 milligrams (mg) of a water-insoluble near-infrared dye (NIR dye) was dissolved in 50 microliters (μL) of dimethylsulfoxide (DMSO) and brought up in water to a final volume of 1 milliliter (mL). This was then diluted out to various concentrations of dye. The diluted dye (typically 0.2 mg/mL) was then added to a surfactant solution (typically 4 wt-%) to form a complex. The complex was added to a PCR reaction.
PCR reactions were set up for a conserved sequence (327 bp) in the protease region of the genome of porcine endogenous retrovirus using a plasmid containing the PERV protease fragment, a forward primer and a reverse primer designed using a primer express program from Applied Biosystems, and AMPLITAQ DNA polymerase cocktail (commercially available from Applied Biosystems, Foster City, Calif.) and cycled in a thermocycler (9700, Applied Biosystems). The PCR reactions were typically carried out in 25-μL volumes. The NIR dye/surfactant mixture was added to the PCR cocktail to give the desired concentration of dye and surfactant in a total volume of 25 μL. […]
In order to find out the optimum concentration of surfactant for PCR with NIR dye (785 WS and SDA 8080), the surfactant concentration in PCR reaction was varied from 0.1 wt-% to 4 wt-%. The PCR product formed was quantitated using DNA 7500 Labchip kit in Agilent 2100 Bioanalyzer (Agilent Inc, Paloalto, Calif.). […]
A variety of dyes (NIR dyes such as IR782, IR768, SDA 2141, SDA8327, IR 830 WS, fluorescent dyes like oligreen and visible dyes like dichlorophenol, indophenol, saffranin, crystal violet, and commercially available food coloring) at typical concentrations of 0.1 or 0.2 mg/mL were allowed to interact with 4 wt-% PLURONIC F127 and each mixture was added to the PCR cocktail. The reaction was set up to amplify PERV protease fragment as described in Example 2 and the products of the reaction were analyzed by agarose gel electrophoresis.

[2] = Laser stability / photobleaching of dye on laser exposure; type: physicochemical
Protocol: An 813-nm diode laser source at 1.2W (1.9A) (Opto Power Corp., Tucson, Ariz.) was used to heat a 10-μL volume of near-IR dye at a concentration (0.1 mg/mL for 785 WS, 0.2 mg/mL for SDA 8080) to yield a 35° C. rise in temperature. The laser was manually turned on long enough for the temperature in a 10-μL well to increase by 35° C. (1-3 seconds) and was manually turned off when that level was attained. The temperature data was obtained using a thermocouple in the well, and the transmittance data was obtained via a power meter whose signals were digitized and graphically interpreted.
In another experiment, the 10 μL well was used to see if the dye/surfactant mixture could withstand laser cycling over a period of 30 cycles. The laser power was systematically varied from 60° C. to 94° C., 30 times.
Unlike in Example 8, some dyes and dye/surfactant complexes undergo photodegradation when exposed to laser beam. […] Specifically, in the case of 785 WS/BRIJ-97, the addition of ascorbic acid (typically 5 mg/mL) helped reduce the amount of photobleaching from 100% to 20% after 30 cycles. In some circumstances, rapid/controlled photodegradation may be desired. […] This would allow DNA tags (fluorescent or vis/IR) to be monitored at the end of the PCR reaction.

T1 sequence (P19821 whole entry, the tested form may be a part): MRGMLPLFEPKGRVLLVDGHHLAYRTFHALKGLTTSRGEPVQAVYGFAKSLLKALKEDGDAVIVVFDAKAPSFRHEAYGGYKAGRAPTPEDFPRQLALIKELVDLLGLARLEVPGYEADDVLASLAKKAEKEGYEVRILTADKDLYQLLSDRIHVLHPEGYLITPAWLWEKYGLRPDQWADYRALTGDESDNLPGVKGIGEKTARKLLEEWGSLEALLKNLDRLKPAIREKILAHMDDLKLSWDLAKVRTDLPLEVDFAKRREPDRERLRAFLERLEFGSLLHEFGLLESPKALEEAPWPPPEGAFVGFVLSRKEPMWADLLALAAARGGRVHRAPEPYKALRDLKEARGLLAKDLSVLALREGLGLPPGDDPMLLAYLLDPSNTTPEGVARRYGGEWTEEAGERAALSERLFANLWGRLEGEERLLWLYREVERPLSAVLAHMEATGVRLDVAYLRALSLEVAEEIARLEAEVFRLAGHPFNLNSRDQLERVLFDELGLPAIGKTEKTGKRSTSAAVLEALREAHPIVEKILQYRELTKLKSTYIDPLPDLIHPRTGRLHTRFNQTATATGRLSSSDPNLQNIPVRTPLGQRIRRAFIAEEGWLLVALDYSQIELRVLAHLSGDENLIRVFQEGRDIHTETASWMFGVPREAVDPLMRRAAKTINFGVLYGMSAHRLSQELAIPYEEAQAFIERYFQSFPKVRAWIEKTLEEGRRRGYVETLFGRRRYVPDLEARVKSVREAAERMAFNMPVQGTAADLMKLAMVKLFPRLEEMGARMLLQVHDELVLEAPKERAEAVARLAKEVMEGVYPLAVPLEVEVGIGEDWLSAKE

Row | Compound | effect of dye alone on PCR [1] | amount of photobleaching ([2]; 785 WS/BRIJ-97 with ascorbic acid (typically 5 mg/mL), after 30 cycles) [%] | effect of antioxidant on dye absorbance ([2]; added to SDA 8080) | effect of antioxidant on photobleaching ([2]; added to virtually any of the surfactants tested with 785 WS)
1 | dichlorophenol | inhibited PCR | – | – | –
2 | Cc1cc2nc3cc(C)c(N)cc3[n+](-c3ccccc3)c2cc1N.[Cl-] [saffranin] | inhibited PCR | – | – | –
3 | O=C1O[C@H]([C@@H](O)CO)C(O)=C1O [ascorbic acid] | – | 20 | destroyed the absorbance in the visible and near-IR region of the dye | reduced photobleaching significantly
4 | CN(C)c1ccc(C(=C2C=CC(=[N+](C)C)C=C2)c2ccc(N(C)C)cc2)cc1 [crystal violet] | inhibited PCR | – | – | –
